The source of these data is article PMC7838189, “Natural podophyllotoxin analog 4DPG attenuates EMT and colorectal cancer progression via activation of checkpoint kinase 2” (Cell Death Discovery, 2021).

In one series the test system is SW-620/5-FU-R cells. As to the kind of experiment: In situ fluorescent gelatin degradation assay (invadopodia). The series is classed as cell-based. To be noted: 48 h, vs vehicle. An excerpt: (§1) 4DPG, a podophyllotoxin class of natural product anticancer compound (Supplementary Fig. S2A) has been recently described by our research group for its potent antitumor and anti-metastatic properties against aggressive cancers[31],[32]. Further, 4DPG augments phosphorylation and activation of Chk2 (Thr68) leading to suppression of EMT and invasiveness of p53-defective cancer cells. To investigate the effect of 4DPG on phosphorylation and expression levels of Chk2 in HCT-116/5-FU-R, SW-620/5-FU-R, and HT-29/5-FU-R cells, we treated these cells for 48 h with increasing concentrations of the compound, and whole-cell lysates were subjected to western blotting analysis. […] To determine the effect of 4DPG on the invasion abilities of these 5-FU-R cells, we performed in situ fluorescent gelatin degradation assay following our pre-standardized protocol[31],[37]. In physiological conditions, this assay mimics the extracellular matrix degradation by aggressive tumor cells undergoing invasion–metastasis process.
(§2) Fig. 2 4DPG activates Chk2 and attenuates EMT in 5-FU-R CRC cells. […] G Quantification of the area of degradation through Image J software. n = 3, error bars, mean ± SD; ***P < 0.001. […]

The nature of series [1]: Distribution coefficient determination. It counts as physicochemical. The note with it: pH 7.4. The method, then: (§3) Solubility and distribution coefficient are among the major physicochemical properties of a drug that greatly determine its absorption in physiological compartments. […] The distribution coefficient (logD, pH 7.4) of 4DPG was determined to be 0.815 ± 0.19, which indicates the slightly lipophilic nature of the molecule. For administration to animals, the appropriate quantity of 4DPG was formulated in the pre-calculated volume of saline with the help of a solubilizer (Tween-80). Next, to assess the hemocompatibility of 4DPG and establish if the compound could be considered safe for intravenous (i.v.) administration, we performed in vitro hemolysis assay by incubating the RBCs with increasing concentrations of the molecule.
(§4) The distribution coefficient, solubility, and hemocompatibility of 4DPG was determined adopting our previously described protocol[37],[40]. For hemolysis assay, increasing concentrations (5, 10, and 20 µg/mL) of 4DPG were employed. Distilled water (DW) and PBS were considered as […].

A further series can be described thus: Solubility determination. The series is classed as physicochemical. The method, then:
as §3, §4

The next series deals with RBCs. As to the kind of experiment: In vitro hemolysis assay. The series is classed as cell-based. The note with it: 20 µg/mL (highest tested concentration), 1 h incubation. The method, then: as §3, §4
Supplementary Figure S4. Hemocompatibility and exposure of 4DPG. (A) Representative images of RBC suspension incubated with distilled water (negative control), PBS (positive control), and increasing concentrations of 4DPG for 1 h. (B) Quantification of hemolysis in above treatment conditions by measuring the optical density at 540 nm. […]

Another series has as its system HCT-116/5-FU-R cells. Put plainly: Immunocytochemistry of Vimentin. To be noted: 300 nM, 48 h. The series is classed as cell-based.
Description: as §1, §2

In series [2] the test system is tumor tissues of orthotopic rat colorectal carcinoma. Put plainly: Western blotting of tumor tissues. It counts as in vivo, Wistar rats. The note with it: 4DPG-treated group vs saline. The method, then: We adhered to the previously published protocol for western blotting. To sum up, cells were exposed to the respective treatments (mentioned in figure legends). Post-treatment, cells were lysed with cell lysis buffer, and cell lysates were collected after centrifugation. Bradford assay was performed to quantify the protein concentration. Equal amount of protein was taken from each sample to carry out the western blot analysis. SDS-PAGE was employed to separate the proteins that were later transferred onto PVDF membranes (Millipore, Billerica, MA). Next, the membranes were blocked with 5% skim milk and subsequently incubated with the specific primary antibodies (1:1000 dilution), either for 3 h at room temperature or overnight at 4 °C. Later, the blots were washed thoroughly with TBST and probed with the respective secondary antibodies (1:2000 dilution) coupled with horseradish peroxidase for 1 h. Following thorough washing, the membranes were visualized using enhanced chemiluminescence reagent (Millipore) and captured onto Biomax light film (The Eastman Kodak Co., Rochester, NY).
On the technique in general: In western blotting, separated proteins are transferred to a membrane and probed.

≈ marks a conversion by molar mass, not a printed value.

As usually defined, the solubility is the concentration that dissolves in the medium under given conditions. Read a low solubility as little dissolved substance.

In the case of `COc1cc([C@@H]2c3cc4c(cc3C[C@H]3COC(=O)[C@@H]32)OCO4)cc(OC)c1O[C@@H]1O[C@H](CO)[C@@H](O)[C@H](O)[C@H]1O` [4DPG, 4′-demethyl-deoxypodophyllotoxin glucoside], the “invadopodia formation and area of degradation over the gelatin matrix” value in the series with SW-620/5-FU-R cells is “significantly reduced”. Besides, the “distribution coefficient (logD)” value in series [1] is 0.815 ± 0.19. The compound also displayed a solubility in the series “Solubility determination” (simulated gastric fluid (SGF, pH 1.2)) of 539.38 ± 91 µg/mL (≈ 987 µM). Further, the solubility in “Solubility determination” (simulated intestinal fluid (SIF, pH 6.8)) is given as 712.92 ± 172 µg/mL (≈ 1300 µM). The hemolysis in the series with RBCs stood at 5.8%. Also, in the series on HCT-116/5-FU-R cells, the “Vimentin expression level (immunocytochemistry)” value was “considerable decrease”. In series [2], the “activation of p53 in tumor tissues” value came out at 5.82 fold, the “activation of p-Chk2 (Thr68) in tumor tissues” value was found to be 3.54 fold, the “downmodulation of Vimentin in tumor tissues” value came to 8.3 fold and the “downmodulation of p-Vimentin (ser38) in tumor tissues” value is 18.2 fold.
